The results in this text go back to patent US10420845B2, “Taggable heteroaromatic drugs and conjugates thereof” (Ramot at Tel-Aviv University Ltd., priority 2015, dated 2019).

The subject of one data set is SF-295. The experiment in a line: tumor cell-growth inhibition assay, SF-295 cells. The class given is cell-based. Particulars: Homo sapiens; cell line SF-295. On the procedure: (§1) In order to find out whether the new derivatives retain their potency, the cytotoxicity of the CPT-, TMZ- and bosutinib-ketone analogues was evaluated in comparison to that of the parent drugs.

Data set [1] has as its system U-87 human primary glioblastoma cell. The experiment in a line: tumor cell-growth inhibition assay, U-87 cells. Format: cell-based. Particulars: U-87 MG. On the procedure: as §1
To determine the usefulness of the drug analogues produced harboring a ketone for controlled release and bioconjugation. CPT-ketone 2a was selected for further evaluation. As presented in Scheme 1, a ketone functional group can be masked either through an acid-labile hydrazone linkage or with a photo-labile ketal protecting group. CPT-ketone 2a was masked with a photo-labile protecting group (Gravel et al., 1983; Klan et al., 2013) to produce ketal derivative 6 (FIG. 5). This derivative can be considered as prodrug form of CPT-ketone 2a. […] The cytotoxicity of prodrug 6 was then evaluated in a standard cell-growth inhibition assay before and after irradiation with UV light (FIG. 5B). […] In this example, the prodrug was activated with UV light; however, there are analogues protecting groups that can be removed through a visible or near infrared light (Lu et al., 2003).

In another data set the test system is HiFR KB cells. The experiment in a line: proliferation (MTT) assay on KB HiFR cells. Format: cell-based. Particulars: human. On the procedure: Proliferation Assay KB HiFR were seeded in 96 well/plates, 2×10^3 cell/100 μL in folate depleted RPMI+10% FBS. After 24 h incubation at 37° C., 5% CO2, 100 μL of serial dilutions (200-0.00002 μM CPT equivalent concentrations) of CPT and CPT-derivatives were added to the wells (final concentration 100-0.00001 μM). In the short exposure (pulse and chase) experiment the treatments were removed after 10 min incubation at 37° C., 5% CO2, the cells were washed once with PBS and incubated with fresh folate depleted RPMI+10% FBS for 72 h. In the long exposure experiment, the cells were incubated for 72 h with the treatment. After 72 h incubation, 30 μL of […] of MTT (3-(4,5-dimethylthiazol-2-yl)-2,5-diphenyltetrazolium bromide) in PBS were added to each well, and incubated for 5 h. After incubation the medium was removed and the cells lysed in 200 μL DMSO and kept under gentle stirring protected from light for 20 min. Absorbance was measured at 560 nm and survival plotted as percentage of untreated control.

Data set [2] in a line: release of CPT-ketone 2a from prodrug 6 with and without UV irradiation. The class given is physicochemical.
Another data set concerns tumorous cell-lines. As to the kind of experiment: tumor cell-growth inhibition assays of ketone derivatives vs native drugs, several tumorous cell-lines. The class given is cell-based. Particulars: repeated with several tumorous cell-lines. Here is the method:
as §1
The assays were repeated with several tumorous cell-lines and the obtained results were similar (FIGS. 3-4).

The next data set has as its system U-251. The experiment in a line: tumor cell-growth inhibition assay, U-251 cells. The class given is cell-based. Conditions: Homo sapiens; cell line U-251. Here is the method:
as §1

pIC50: −log10 of the molar value.

Turning to `COc1cc(Nc2c(C#N)cnc3cc(OCCCN4CCN(C)CC4)c(OC)cc23)c(Cl)cc1Cl` [Bosutinib, bosutinib, reference compound], the negative logarithm of the IC50 (pIC50) (commonly the IC50 on a negative log10 scale, so that one unit is a factor of ten) in the data set with SF-295 is 4.77.

`COc1cc(Nc2c(C#N)c(C(F)(F)CCCC(C)=O)nc3cc(OCCCN4CCN(C)CC4)c(OC)cc23)c(Cl)cc1Cl` [Bosutinib-ketone] showed a pIC50 in the data set with SF-295 of 4.77.

`CC[C@@]1(O)C(=O)OCc2c1cc1n(c2=O)Cc2cc3ccccc3nc2-1` [CPT, camptothecin, reference compound]: the pIC50 in data set [1] (cell line U-87) is 8.15.

`CCC1(O)C(=O)OCc2c1cc1n(c2=O)Cc2c-1nc1ccccc1c2C(F)(F)CCCC(C)=O` (stereo not shown) [CPT-ketone]: the pIC50 in data set [1] (cell line U-87) is 8.00; in data set [1] (light or radiation study, comparator in prodrug 6 irradiation experiment), 8.30. Further, the “IC50 comparison, cytotoxicity on HiFR KB cells” value with HiFR KB cells is listed as “relatively similar IC50 values”.

As for `CCC1(O)C(=O)OCc2c1cc1n(c2=O)Cc2c-1nc1ccccc1c2C(F)(F)CCCC1(C)OCC(c2cc(OC)c(OC)cc2[N+](=O)[O-])O1` (stereo not shown) [Compound 6], the “release of CPT-ketone 2a” value in data set [2] (irradiation with UV light over 2 hours under physiological conditions) is “resulted in release of CPT-ketone 2a”; in data set [2] (without irradiation) it was “No release was observed”. The pIC50 in data set [1] (light or radiation study, prodrug after irradiation with UV light) was 8.00; in data set [1] (light or radiation study, prodrug before irradiation with UV light), 6.46.

Regarding `CC(=O)CCCC(F)(F)c1nc2nc(N)nc(N)c2nc1CN(C)c1ccc(C(=O)NC(CCC(=O)O)C(=O)O)cc1` (stereo not shown) [MTX-ketone], in the data set with tumorous cell-lines, the “cytotoxicity of ketone analogue compared with native drug” value is given as “completely lost its cytotoxicity”.

For the compound `Cn1nnc2c(C(N)=O)ncn2c1=O` [TMZ, temozolomide, reference compound], the negative logarithm of the IC50 (pIC50) with U-251 was 4.44.

Turning to `CC(=O)CCCC(F)(F)c1nc(C(N)=O)c2nnn(C)c(=O)n12` [TMZ-ketone], the pIC50 in the data set with U-251 is 4.46.
